Key:
Details in all cases: Compound concentration 1000.0 nM
[1] = target: Phosphatidylinositol 4-phosphate 5-kinase type-1 gamma (Homo sapiens) (UniProt O60331)
[2] = target: Serine/threonine-protein kinase SIK1 (Homo sapiens) (UniProt P57059)
[3] = target: Ephrin type-A receptor 6 (Homo sapiens) (UniProt Q9UF33)
[4] = target: Dual specificity mitogen-activated protein kinase kinase 1 (Homo sapiens) (UniProt Q02750)
[5] = target: Serine/threonine-protein kinase TAO3 (Homo sapiens) (UniProt Q9H2K8)
[6] = target: Glycogen synthase kinase-3 beta (Homo sapiens) (UniProt P49841)
[7] = target: Cyclin-dependent kinase 2 (Homo sapiens) (UniProt P24941)
[8] = target: Serine/threonine-protein kinase 32C (Homo sapiens) (UniProt Q86UX6)
[9] = target: Mitogen-activated protein kinase kinase kinase kinase 2 (Homo sapiens) (UniProt Q12851)
[10] = target: Protein kinase C iota type (Homo sapiens) (UniProt P41743)
[11] = target: Fibroblast growth factor receptor 2 (Homo sapiens) (UniProt P21802)
[12] = target: Serine/threonine-protein kinase PRP4 homolog (Homo sapiens) (UniProt Q13523)
[13] = test system: Phosphatidylinositol 4,5-bisphosphate 3-kinase catalytic subunit alpha isoform (Homo sapiens), P42336 [C420R]
[14] = target: Serine/threonine-protein kinase 36 (Homo sapiens) (UniProt Q9NRP7)
[15] = target: Leucine-rich repeat serine/threonine-protein kinase 2 (Homo sapiens) (UniProt Q5S007)
[16] = target: Serine/threonine-protein kinase Sgk2 (Homo sapiens) (UniProt Q9HBY8)
[17] = target: Atypical kinase COQ8B, mitochondrial (Homo sapiens) (UniProt Q96D53)
[18] = target: Homeodomain-interacting protein kinase 4 (Homo sapiens) (UniProt Q8NE63)
[19] = target: Mitogen-activated protein kinase kinase kinase 6 (Homo sapiens) (UniProt O95382)
[20] = target: Serine/threonine-protein kinase N1 (Homo sapiens) (UniProt Q16512)
[21] = target: Rhodopsin kinase GRK1 (Homo sapiens) (UniProt Q15835)
[22] = test system: Phosphatidylinositol 4,5-bisphosphate 3-kinase catalytic subunit alpha isoform (Homo sapiens), P42336 [I800L]
[23] = target: Serine/threonine-protein kinase Sgk1 (Homo sapiens) (UniProt O00141)
[24] = target: Mitogen-activated protein kinase kinase kinase 20 (Homo sapiens) (UniProt Q9NYL2)
[25] = target: Dual specificity protein kinase TTK (Homo sapiens) (UniProt P33981)
[26] = target: Vascular endothelial growth factor receptor 2 (Homo sapiens) (UniProt P35968)
[27] = target: Ribosomal protein S6 kinase alpha-2 (Homo sapiens) (UniProt Q15349)
[28] = target: Mitogen-activated protein kinase kinase kinase kinase 1 (Homo sapiens) (UniProt Q92918)
[29] = target: cAMP-dependent protein kinase catalytic subunit PRKX (Homo sapiens) (UniProt P51817)
[30] = target: Calcium/calmodulin-dependent protein kinase kinase 1 (Homo sapiens) (UniProt Q8N5S9)
[31] = target: Serine/threonine-protein kinase TBK1 (Homo sapiens) (UniProt Q9UHD2)
[32] = test system: Receptor-type tyrosine-protein kinase FLT3 (Homo sapiens), P36888 [UNDEFINED MUTATION]
[33] = target: Tyrosine-protein kinase ZAP-70 (Homo sapiens) (UniProt P43403)
[34] = target: MAP kinase-interacting serine/threonine-protein kinase 2 (Homo sapiens) (UniProt Q9HBH9)
[35] = test system: Proto-oncogene tyrosine-protein kinase receptor Ret (Homo sapiens), P07949 [V804L]
[36] = target: Ephrin type-A receptor 3 (Homo sapiens) (UniProt P29320)
[37] = test system: Epidermal growth factor receptor (Homo sapiens), P00533 [L858R,T790M]
[38] = target: cGMP-dependent protein kinase 2 (Homo sapiens) (UniProt Q13237)
[39] = target: Tyrosine-protein kinase Fyn (Homo sapiens) (UniProt P06241)
[40] = target: Tyrosine-protein kinase ITK/TSK (Homo sapiens) (UniProt Q08881)
[41] = target: Fibroblast growth factor receptor 4 (Homo sapiens) (UniProt P22455)
[42] = target: Cyclin-dependent kinase 16 (Homo sapiens) (UniProt Q00536)
[43] = target: Testis-specific serine/threonine-protein kinase 3 (Homo sapiens) (UniProt Q96PN8)
[44] = test system: Mast/stem cell growth factor receptor Kit (Homo sapiens), P10721 [L576P]
[45] = test system: Receptor-type tyrosine-protein kinase FLT3 (Homo sapiens), P36888 [N841I]

Measured: residual activity

Chain of Leucine-rich repeat serine/threonine-protein kinase 2 (Homo sapiens) (Q5S007 whole entry): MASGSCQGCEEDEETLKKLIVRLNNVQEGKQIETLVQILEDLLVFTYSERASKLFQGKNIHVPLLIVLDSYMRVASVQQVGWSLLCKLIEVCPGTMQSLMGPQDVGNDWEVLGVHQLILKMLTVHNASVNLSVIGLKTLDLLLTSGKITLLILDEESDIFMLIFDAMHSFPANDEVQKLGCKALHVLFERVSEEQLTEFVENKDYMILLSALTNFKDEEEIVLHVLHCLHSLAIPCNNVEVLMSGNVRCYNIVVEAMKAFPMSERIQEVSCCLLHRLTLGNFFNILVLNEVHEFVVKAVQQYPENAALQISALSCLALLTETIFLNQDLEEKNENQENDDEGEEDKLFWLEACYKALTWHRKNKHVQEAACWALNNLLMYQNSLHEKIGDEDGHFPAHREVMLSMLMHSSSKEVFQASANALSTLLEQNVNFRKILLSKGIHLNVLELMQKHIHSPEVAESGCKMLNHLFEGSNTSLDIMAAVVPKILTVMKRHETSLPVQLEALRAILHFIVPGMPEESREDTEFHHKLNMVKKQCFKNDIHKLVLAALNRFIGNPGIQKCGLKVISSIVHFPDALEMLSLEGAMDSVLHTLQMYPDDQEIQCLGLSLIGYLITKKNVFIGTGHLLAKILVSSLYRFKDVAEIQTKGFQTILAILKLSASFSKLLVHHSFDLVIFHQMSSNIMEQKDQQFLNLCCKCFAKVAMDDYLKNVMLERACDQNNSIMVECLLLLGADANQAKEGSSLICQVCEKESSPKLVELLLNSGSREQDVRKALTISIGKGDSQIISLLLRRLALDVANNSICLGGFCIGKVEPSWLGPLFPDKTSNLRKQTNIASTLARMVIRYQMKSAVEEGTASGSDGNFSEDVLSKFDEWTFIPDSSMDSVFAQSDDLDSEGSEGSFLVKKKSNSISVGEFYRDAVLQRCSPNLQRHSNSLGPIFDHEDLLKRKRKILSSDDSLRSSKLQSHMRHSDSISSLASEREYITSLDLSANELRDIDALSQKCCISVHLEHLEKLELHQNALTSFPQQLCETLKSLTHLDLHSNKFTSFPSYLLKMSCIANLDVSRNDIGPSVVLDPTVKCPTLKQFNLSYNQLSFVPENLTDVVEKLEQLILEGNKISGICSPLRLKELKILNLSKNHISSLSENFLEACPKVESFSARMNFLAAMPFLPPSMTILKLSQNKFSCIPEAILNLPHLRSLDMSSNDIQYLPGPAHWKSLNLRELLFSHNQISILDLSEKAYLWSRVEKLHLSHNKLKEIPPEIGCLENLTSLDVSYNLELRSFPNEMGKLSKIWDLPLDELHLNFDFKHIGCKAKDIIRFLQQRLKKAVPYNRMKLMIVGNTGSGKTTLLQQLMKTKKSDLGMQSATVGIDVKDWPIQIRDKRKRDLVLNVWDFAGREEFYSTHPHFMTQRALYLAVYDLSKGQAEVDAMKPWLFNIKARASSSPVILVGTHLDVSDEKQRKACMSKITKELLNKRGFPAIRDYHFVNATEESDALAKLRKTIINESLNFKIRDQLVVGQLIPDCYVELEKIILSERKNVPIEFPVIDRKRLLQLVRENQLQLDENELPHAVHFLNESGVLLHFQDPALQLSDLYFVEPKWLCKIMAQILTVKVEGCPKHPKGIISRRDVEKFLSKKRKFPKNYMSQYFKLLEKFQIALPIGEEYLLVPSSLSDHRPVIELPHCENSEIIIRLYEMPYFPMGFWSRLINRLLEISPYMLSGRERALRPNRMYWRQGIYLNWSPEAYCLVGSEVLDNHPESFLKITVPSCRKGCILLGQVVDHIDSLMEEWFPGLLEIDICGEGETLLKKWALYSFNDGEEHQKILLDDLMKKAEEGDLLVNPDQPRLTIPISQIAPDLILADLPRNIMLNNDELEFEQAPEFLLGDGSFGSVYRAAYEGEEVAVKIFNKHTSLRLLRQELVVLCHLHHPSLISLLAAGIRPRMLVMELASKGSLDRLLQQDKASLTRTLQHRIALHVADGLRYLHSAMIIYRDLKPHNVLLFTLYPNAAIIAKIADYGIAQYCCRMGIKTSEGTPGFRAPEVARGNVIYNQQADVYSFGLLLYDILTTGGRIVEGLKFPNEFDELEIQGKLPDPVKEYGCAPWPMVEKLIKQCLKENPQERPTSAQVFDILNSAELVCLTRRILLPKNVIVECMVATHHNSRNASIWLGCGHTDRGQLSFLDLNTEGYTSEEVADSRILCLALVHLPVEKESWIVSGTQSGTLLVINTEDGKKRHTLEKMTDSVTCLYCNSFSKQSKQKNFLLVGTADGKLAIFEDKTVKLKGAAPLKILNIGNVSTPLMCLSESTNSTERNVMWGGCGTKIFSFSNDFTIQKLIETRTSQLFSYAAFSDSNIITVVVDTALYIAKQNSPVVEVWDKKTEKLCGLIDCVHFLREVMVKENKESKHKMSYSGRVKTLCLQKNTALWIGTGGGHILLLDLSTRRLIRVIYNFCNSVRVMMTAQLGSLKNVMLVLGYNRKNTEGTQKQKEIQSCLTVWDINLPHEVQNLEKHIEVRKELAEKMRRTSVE
Chain of Serine/threonine-protein kinase PRP4 homolog (Homo sapiens) (Q13523 whole entry, canonical isoform): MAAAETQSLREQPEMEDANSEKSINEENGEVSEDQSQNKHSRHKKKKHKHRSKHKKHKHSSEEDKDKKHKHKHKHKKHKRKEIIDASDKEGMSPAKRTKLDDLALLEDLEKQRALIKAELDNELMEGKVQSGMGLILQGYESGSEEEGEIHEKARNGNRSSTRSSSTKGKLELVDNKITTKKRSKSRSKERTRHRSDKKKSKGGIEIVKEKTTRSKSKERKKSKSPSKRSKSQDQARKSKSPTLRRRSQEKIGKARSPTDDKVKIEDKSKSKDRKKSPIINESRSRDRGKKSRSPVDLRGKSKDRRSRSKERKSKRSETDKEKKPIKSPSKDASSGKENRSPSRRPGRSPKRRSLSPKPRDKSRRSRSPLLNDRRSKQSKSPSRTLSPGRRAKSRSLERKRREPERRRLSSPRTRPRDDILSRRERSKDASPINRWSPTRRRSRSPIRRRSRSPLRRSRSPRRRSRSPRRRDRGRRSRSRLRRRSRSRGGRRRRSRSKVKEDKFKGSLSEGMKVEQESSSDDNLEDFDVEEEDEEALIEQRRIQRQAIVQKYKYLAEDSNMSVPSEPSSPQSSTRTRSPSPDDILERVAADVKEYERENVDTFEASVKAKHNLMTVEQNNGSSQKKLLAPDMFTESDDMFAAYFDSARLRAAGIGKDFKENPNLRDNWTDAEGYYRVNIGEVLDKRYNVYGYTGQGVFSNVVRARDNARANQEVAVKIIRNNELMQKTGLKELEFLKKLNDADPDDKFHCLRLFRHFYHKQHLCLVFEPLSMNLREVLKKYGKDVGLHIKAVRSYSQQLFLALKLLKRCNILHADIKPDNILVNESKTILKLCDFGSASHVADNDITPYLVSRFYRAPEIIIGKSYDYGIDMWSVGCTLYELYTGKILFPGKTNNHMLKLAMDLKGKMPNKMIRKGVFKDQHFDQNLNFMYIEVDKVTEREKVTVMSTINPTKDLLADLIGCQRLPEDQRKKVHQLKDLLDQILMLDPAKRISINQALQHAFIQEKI
Chain of Serine/threonine-protein kinase Sgk2 (Homo sapiens) (Q9HBY8 whole entry): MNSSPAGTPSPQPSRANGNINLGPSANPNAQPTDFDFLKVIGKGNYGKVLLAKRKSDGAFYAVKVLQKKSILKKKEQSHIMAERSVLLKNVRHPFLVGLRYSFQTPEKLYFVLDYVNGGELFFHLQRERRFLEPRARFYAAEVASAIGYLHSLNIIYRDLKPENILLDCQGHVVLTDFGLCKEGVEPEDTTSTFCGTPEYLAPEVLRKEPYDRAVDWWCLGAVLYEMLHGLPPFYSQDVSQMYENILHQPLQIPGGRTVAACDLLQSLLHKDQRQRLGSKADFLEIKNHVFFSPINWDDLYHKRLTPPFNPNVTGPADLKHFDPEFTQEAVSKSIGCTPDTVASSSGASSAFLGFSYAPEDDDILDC
Chain of Testis-specific serine/threonine-protein kinase 3 (Homo sapiens) (Q96PN8 whole entry): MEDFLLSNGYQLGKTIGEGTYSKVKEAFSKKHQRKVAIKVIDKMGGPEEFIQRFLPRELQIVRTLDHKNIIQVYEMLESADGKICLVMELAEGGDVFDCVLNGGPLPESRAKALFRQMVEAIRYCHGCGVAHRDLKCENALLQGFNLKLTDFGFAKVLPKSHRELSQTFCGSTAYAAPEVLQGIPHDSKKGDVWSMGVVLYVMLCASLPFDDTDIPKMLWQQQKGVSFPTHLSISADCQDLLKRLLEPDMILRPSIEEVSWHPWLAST
Chain of Mitogen-activated protein kinase kinase kinase kinase 2 (Homo sapiens) (Q12851 whole entry): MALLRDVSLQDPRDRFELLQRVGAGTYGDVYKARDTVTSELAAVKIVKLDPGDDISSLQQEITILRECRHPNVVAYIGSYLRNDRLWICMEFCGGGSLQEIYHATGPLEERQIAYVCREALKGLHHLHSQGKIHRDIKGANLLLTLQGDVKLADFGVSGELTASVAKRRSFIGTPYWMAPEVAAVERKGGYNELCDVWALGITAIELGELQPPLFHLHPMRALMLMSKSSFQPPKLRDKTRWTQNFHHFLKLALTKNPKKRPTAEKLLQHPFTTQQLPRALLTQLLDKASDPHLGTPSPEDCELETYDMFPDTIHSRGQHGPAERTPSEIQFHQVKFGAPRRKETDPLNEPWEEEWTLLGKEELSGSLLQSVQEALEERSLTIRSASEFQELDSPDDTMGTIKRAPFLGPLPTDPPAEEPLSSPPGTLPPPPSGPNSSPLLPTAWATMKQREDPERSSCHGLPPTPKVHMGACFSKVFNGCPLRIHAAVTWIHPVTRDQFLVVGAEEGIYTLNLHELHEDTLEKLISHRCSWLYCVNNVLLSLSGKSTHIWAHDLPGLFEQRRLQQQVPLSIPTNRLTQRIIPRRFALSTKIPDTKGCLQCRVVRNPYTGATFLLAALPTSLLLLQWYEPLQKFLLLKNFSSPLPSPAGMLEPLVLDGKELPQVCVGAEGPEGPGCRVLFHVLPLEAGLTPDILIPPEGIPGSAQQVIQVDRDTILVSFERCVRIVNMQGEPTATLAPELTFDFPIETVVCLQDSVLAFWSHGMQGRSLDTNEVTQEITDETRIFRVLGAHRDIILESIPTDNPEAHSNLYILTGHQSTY

c1ccc(N2CCN(Cc3nc4ccccc4[nH]3)CC2)nc1 [ABT-724]
inactive: [1] 93% | [2] 100% | [3] 100% | [4] 100% | [5] 86% | [6] 93% | [7] 100% | [8] 100% | [9] 100% | [10] 97% | [11] 96% | [12] 57% | [13] 100% | [14] 84% | [15] 99% | [16] 100% | [17] 100% | [18] 91% | [19] 98% | [20] 88% | [21] 92% | [22] 78% | [23] 100% | [24] 92% | [25] 100% | [26] 100% | [27] 99% | [28] 100% | [29] 100% | [30] 98% | [31] 77% | [32] 100% | [33] 100% | [34] 100% | [35] 100% | [36] 100% | [37] 100% | [38] 100% | [39] 100% | [40] 100% | [41] 93% | [42] 100% | [43] 92% | [44] 100% | [45] 100%

CSc1cccnc1N1CCN(Cc2nc3ccccc3[nH]2)CC1 [A-769]
inactive: [1] 100% | [2] 100% | [3] 100% | [4] 79% | [5] 93% | [6] 78% | [7] 95% | [8] 71% | [9] 100% | [10] 100% | [11] 100% | [12] 100% | [13] 100% | [14] 97% | [15] 97% | [16] 81% | [17] 100% | [18] 100% | [19] 92% | [20] 100% | [21] 100% | [22] 77% | [23] 82% | [24] 100% | [25] 98% | [26] 89% | [27] 100% | [28] 100% | [29] 100% | [30] 100% | [31] 100% | [32] 100% | [33] 99% | [34] 75% | [35] 98% | [36] 100% | [37] 91% | [38] 94% | [39] 100% | [40] 97% | [41] 89% | [42] 81% | [43] 98% | [44] 92% | [45] 100%

— ChEMBL document CHEMBL4507260 (2021)
